Assays:
[1] = background statement; cited from earlier work
[2] = pH measurement of oral solutions diluted with water 1:10 and of sodium sulindac solution; type: physicochemical
From the text: The results are shown below.

[3] = Stability, hygroscopicity and crystallization of salts and compositions; type: physicochemical

In the case of `CC1=C(CC(=O)O)c2cc(F)ccc2/C1=C\c1ccc([S+](C)[O-])cc1` (stereo not drawn) [Sulindac], the “absorption from the gastrointestinal tract” value [1] is listed as “erratically absorbed”.
With `CC1=C(CC(=O)O)c2cc(F)ccc2/C1=C\c1ccc([S+](C)[O-])cc1` (stereo not drawn) [calcium sulindac] the “pH of solutions, in words” value ([2]; compared with sodium sulindac solutions) was “acceptable for formulation” and the stability [3] was “good stability”.
In the case of `CC1=C(CC(=O)O)c2cc(F)ccc2/C1=C\c1ccc([S+](C)[O-])cc1` (stereo not drawn) [sodium sulindac], the “pH of aqueous solution” value ([2]; aqueous solution, 4%) is reported as 10.99, the hygroscopicity [3] is reported as “strongly hygroscopic” and the crystallization ([3]; in our hands) is reported as “difficult to crystallize”.

Source: patent US4880835A, “Oral liquid pharmaceutical compositions of sulindac” (Formulations Development Labs, Inc., priority 1988, dated 1989)
